The results in this text go back to paper PMC5218480 (PLoS ONE, 2017).

The subject of this assay is MV-4-11 cells. The assay is described as follows: Gene expression microarray analysis (Affymetrix PrimeView) and GSEA. On the set-up: RFU PODN (11730768_x_at) / Fold change /veh PODN (11730768_x_at) / RFU LINC00158 (11744669_a_at) / Fold change /veh LINC00158 (11744669_a_at) / RFU DUSP10 (11751237_a_at) / Fold change /veh DUSP10 (11751237_a_at) / RFU ID3 (11757404_x_at) / Fold change /veh ID3 (11757404_x_at) / RFU PLEKHG5 (11737974_s_at) / Fold change /veh PLEKHG5 (11737974_s_at) / RFU LRRC4B (11730491_at) / Fold change /veh LRRC4B (11730491_at) / RFU GIMAP4 (11747438_a_at) / Fold change /veh GIMAP4 (11747438_a_at) / RFU KRT8 (11758183_x_at) / Fold change /veh KRT8 (11758183_x_at) / RFU CNN1 (11734310_a_at) / Fold change /veh CNN1 (11734310_a_at) / RFU VPS37D (11726825_at) / Fold change /veh VPS37D (11726825_at) / RFU C10orf10 (11716522_x_at) / Fold change /veh C10orf10 (11716522_x_at) / RFU KIR2DL2 /// KIR2DL4 /// KIR2DL5A /// KIR2DL5B /// KIR2DS1 /// KIR2DS2 /// KIR2DS3 /// KIR2DS4 /// KIR3DL3 /// KIR3DL3 /// KIR3DS1 (11738374_at) / Fold change /veh KIR2DL2 /// KIR2DL4 /// KIR2DL5A /// KIR2DL5B /// KIR2DS1 /// KIR2DS2 /// KIR2DS3 /// KIR2DS4 /// KIR3DL3 /// KIR3DL3 /// KIR3DS1 (11738374_at) / RFU C1QL1 (11718748_at) / Fold change /veh C1QL1 (11718748_at) / RFU TMPRSS4 (11747572_a_at) / Fold change /veh TMPRSS4 (11747572_a_at) / RFU HAMP (11756126_x_at) / Fold change /veh HAMP (11756126_x_at) / RFU RNFT2 (11725882_a_at) / Fold change /veh RNFT2 (11725882_a_at) / RFU NR4A2 (11747474_a_at) / Fold change /veh NR4A2 (11747474_a_at) / RFU ABCC12 (11746883_a_at) / Fold change /veh ABCC12 (11746883_a_at) / RFU TMEM136 (11760407_x_at) / Fold change /veh TMEM136 (11760407_x_at) / RFU CLDN22 /// WWC2 (11732394_at) / Fold change /veh CLDN22 /// WWC2 (11732394_at) / RFU HLA-DPB1 (11760878_x_at) / Fold change /veh HLA-DPB1 (11760878_x_at) / RFU SPINT1 (11716480_a_at) / Fold change /veh SPINT1 (11716480_a_at) / RFU GAP43 (11754022_s_at) / Fold change /veh GAP43 (11754022_s_at) / RFU A4GNT (11735810_at) / Fold change /veh A4GNT (11735810_at) / RFU PRB3 (11715151_x_at) / Fold change /veh PRB3 (11715151_x_at) / RFU TUBB4B (11761932_at) / Fold change /veh TUBB4B (11761932_at) / RFU CAPN14 (11732068_a_at) / Fold change /veh CAPN14 (11732068_a_at) / RFU TMCC2 (11721928_a_at) / Fold change /veh TMCC2 (11721928_a_at) / RFU IRGQ (11745062_a_at) / Fold change /veh IRGQ (11745062_a_at) / RFU FAM174B (11720279_a_at) / Fold change /veh FAM174B (11720279_a_at) / RFU TMPRSS4 (11748680_a_at) / Fold change /veh TMPRSS4 (11748680_a_at) / RFU FAM212B (11763350_a_at) / Fold change /veh FAM212B (11763350_a_at) / RFU PLEKHG5 (11743358_a_at) / Fold change /veh PLEKHG5 (11743358_a_at) / RFU ZSCAN30 (11745921_a_at) / Fold change /veh ZSCAN30 (11745921_a_at) / RFU CMKLR1 (11741424_a_at) / Fold change /veh CMKLR1 (11741424_a_at) / RFU LOC101060620 /// MAPK8IP1 (11723275_at) / Fold change /veh LOC101060620 /// MAPK8IP1 (11723275_at) / RFU SPTSSB (11747773_x_at) / Fold change /veh SPTSSB (11747773_x_at) / RFU PRSS12 (11739890_at) / Fold change /veh PRSS12 (11739890_at) / RFU BIN1 (11741810_x_at) / Fold change /veh BIN1 (11741810_x_at) / RFU WNT11 (11732464_a_at) / Fold change /veh WNT11 (11732464_a_at) / RFU C10orf10 (11716521_a_at) / Fold change /veh C10orf10 (11716521_a_at) / RFU C5orf56 (11738089_at) / Fold change /veh C5orf56 (11738089_at) / RFU CYB561 (11721691_x_at) / Fold change /veh CYB561 (11721691_x_at) / RFU ANKRD19P (11752326_a_at) / Fold change /veh ANKRD19P (11752326_a_at) / RFU OR2T12 /// OR2T33 /// OR2T8 (11738714_s_at) / Fold change /veh OR2T12 /// OR2T33 /// OR2T8 (11738714_s_at) / RFU VCAN (11748164_a_at) / Fold change /veh VCAN (11748164_a_at) / RFU JSRP1 (11732532_at) / Fold change /veh JSRP1 (11732532_at) / RFU KRTAP10-11 (11738290_x_at) / Fold change /veh KRTAP10-11 (11738290_x_at) / RFU MYO3A (11730013_a_at) / Fold change /veh MYO3A (11730013_a_at) / RFU EBF3 (11725865_a_at) / Fold change /veh EBF3 (11725865_a_at) / RFU CAMK2N1 (11719241_x_at) / Fold change /veh CAMK2N1 (11719241_x_at) / RFU C5orf56 (11738088_a_at) / Fold change /veh C5orf56 (11738088_a_at) / RFU OLFML3 (11715873_a_at) / Fold change /veh OLFML3 (11715873_a_at) / RFU LOC100653217 /// NTM (11731650_a_at) / Fold change /veh LOC100653217 /// NTM (11731650_a_at) / RFU MAPK11 (11762145_a_at) / Fold change /veh MAPK11 (11762145_a_at) / RFU FIZ1 (11724087_x_at) / Fold change /veh FIZ1 (11724087_x_at) / RFU OASL (11726364_x_at) / Fold change /veh OASL (11726364_x_at) / RFU SOX15 (11748057_x_at) / Fold change /veh SOX15 (11748057_x_at) / RFU CD79A (11719716_a_at) / Fold change /veh CD79A (11719716_a_at) / RFU HIST1H1D (11736915_at) / Fold change /veh HIST1H1D (11736915_at) / RFU CASKIN2 (11723855_a_at) / Fold change /veh CASKIN2 (11723855_a_at) / RFU LOC730098 (11760151_x_at) / Fold change /veh LOC730098 (11760151_x_at) / RFU OR4N2 (11742367_at) / Fold change /veh OR4N2 (11742367_at) / RFU PRRT2 (11749266_a_at) / Fold change /veh PRRT2 (11749266_a_at) / RFU SNX32 (11753110_a_at) / Fold change /veh SNX32 (11753110_a_at) / RFU CDHR5 (11726645_a_at) / Fold change /veh CDHR5 (11726645_a_at) / RFU RCAN1 (11760418_a_at) / Fold change /veh RCAN1 (11760418_a_at) / RFU FAM167A (11723789_a_at) / Fold change /veh FAM167A (11723789_a_at) / RFU FAM26E (11764081_at) / Fold change /veh FAM26E (11764081_at) / RFU ISYNA1 (11749810_s_at) / Fold change /veh ISYNA1 (11749810_s_at) / RFU ACY1 (11761880_at) / Fold change /veh ACY1 (11761880_at) / RFU 11764098_at / Fold change /veh 11764098_at / RFU SAMD14 (11745864_x_at) / Fold change /veh SAMD14 (11745864_x_at) / RFU NPB (11741838_a_at) / Fold change /veh NPB (11741838_a_at) / RFU TMPRSS6 (11731388_a_at) / Fold change /veh TMPRSS6 (11731388_a_at) / RFU KRTAP10-2 (11738614_at) / Fold change /veh KRTAP10-2 (11738614_at) / RFU ARHGAP8 /// PRR5-ARHGAP8 (11727945_x_at) / Fold change /veh ARHGAP8 /// PRR5-ARHGAP8 (11727945_x_at) / RFU KRTAP5-7 /// NADSYN1 (11734609_at) / Fold change /veh KRTAP5-7 /// NADSYN1 (11734609_at) / RFU RASL12 (11751679_a_at) / Fold change /veh RASL12 (11751679_a_at) / RFU CDKN2B (11736163_a_at) / Fold change /veh CDKN2B (11736163_a_at) / RFU PRF1 (11729649_at) / Fold change /veh PRF1 (11729649_at) / RFU, ZNF638 /// ZNF638-IT1 / Fold change vs veh, ZNF638 /// ZNF638-IT1 / RFU, PANK3 / Fold change vs veh, PANK3 / RFU, SH3YL1 / Fold change vs veh, SH3YL1 / RFU, ZEB2 / Fold change vs veh, ZEB2 / RFU, NRIP1 / Fold change vs veh, NRIP1 / RFU, PTTG1IP / Fold change vs veh, PTTG1IP / RFU, CAPN2 / Fold change vs veh, CAPN2 / RFU, MED14 / Fold change vs veh, MED14 / RFU, SNORA58 / Fold change vs veh, SNORA58 / RFU, C1orf63 / Fold change vs veh, C1orf63 / RFU, LRRFIP1 / Fold change vs veh, LRRFIP1 / RFU, NDUFAF7 / Fold change vs veh, NDUFAF7 / RFU, SLC12A2 / Fold change vs veh, SLC12A2 / RFU, IBTK / Fold change vs veh, IBTK / RFU, ESF1 / Fold change vs veh, ESF1 / Fold change vs veh, TMEM50B / RFU, TAOK1 / Fold change vs veh, TAOK1 / RFU, ACBD3 / Fold change vs veh, ACBD3 / RFU, TMA16 / Fold change vs veh, TMA16 / RFU, RWDD3 / Fold change vs veh, RWDD3 / RFU, BCAT1 / Fold change vs veh, BCAT1 / RFU, EDEM3 / Fold change vs veh, EDEM3 / RFU, TMEM33 / Fold change vs veh, TMEM33 / RFU, WDR75 / Fold change vs veh, WDR75 / RFU, AHCTF1 / Fold change vs veh, AHCTF1 / RFU, TFRC / Fold change vs veh, TFRC / RFU, ZDHHC17 / Fold change vs veh, ZDHHC17 / RFU, NOM1 / Fold change vs veh, NOM1 / RFU, ARL8B / Fold change vs veh, ARL8B / RFU, ZBTB11 / Fold change vs veh, ZBTB11 / RFU, TAMM41 / Fold change vs veh, TAMM41 / RFU, KIAA1704 /// LOC100996395 / Fold change vs veh, KIAA1704 /// LOC100996395 / RFU, ING1 / Fold change vs veh, ING1 / RFU, TRMT61B / Fold change vs veh, TRMT61B / RFU, FUBP3 / Fold change vs veh, FUBP3 / RFU, TP53 / Fold change vs veh, TP53 / RFU, TNKS2 / Fold change vs veh, TNKS2 / RFU, ZFP14 / Fold change vs veh, ZFP14 / RFU, ACTR2 / Fold change vs veh, ACTR2 / RFU, PPP3R1 / Fold change vs veh, PPP3R1 / RFU, PIK3R1 / Fold change vs veh, PIK3R1 / RFU, HNRNPA1 / Fold change vs veh, HNRNPA1 / RFU, RNF170 / Fold change vs veh, RNF170 / RFU, ZNF28 / Fold change vs veh, ZNF28 / RFU, RNGTT / Fold change vs veh, RNGTT / RFU, OGT / Fold change vs veh, OGT / RFU, BRD1 / Fold change vs veh, BRD1 / RFU, MARS / Fold change vs veh, MARS / RFU, ZNF655 / Fold change vs veh, ZNF655 / RFU, FAHD1 / Fold change vs veh, FAHD1 / RFU, BDP1 / Fold change vs veh, BDP1 / RFU, LRRCC1 / Fold change vs veh, LRRCC1 / RFU, ARID1A / Fold change vs veh, ARID1A / RFU, ZNF146 / Fold change vs veh, ZNF146 / RFU, ZNF330 / Fold change vs veh, ZNF330 / RFU, GPN3 / Fold change vs veh, GPN3 / RFU, C9orf123 / Fold change vs veh, C9orf123 / RFU, N4BP2L2 / Fold change vs veh, N4BP2L2 / RFU, ARFIP1 / Fold change vs veh, ARFIP1 / RFU, FAM179B / Fold change vs veh, FAM179B / RFU, BCL10 / Fold change vs veh, BCL10 / RFU, UHRF1BP1L / Fold change vs veh, UHRF1BP1L / RFU, BET1 / Fold change vs veh, BET1 / RFU, CNOT2 / Fold change vs veh, CNOT2 / RFU, ZNF268 / Fold change vs veh, ZNF268 / Fold change vs veh, ZNF507 / RFU, DGCR2 / Fold change vs veh, DGCR2 / RFU, WDSUB1 / Fold change vs veh, WDSUB1 / Fold change vs veh, HSP90B1 /// MIR3652 / RFU, ADSS / Fold change vs veh, ADSS / RFU, GK / Fold change vs veh, GK / RFU, ZNF148 / Fold change vs veh, ZNF148 / RFU, TAF9 / Fold change vs veh, TAF9 / RFU, SLC1A5 / Fold change vs veh, SLC1A5 / RFU, SLMO2 / Fold change vs veh, SLMO2 / RFU, ABCC4 / Fold change vs veh, ABCC4 / RFU, LOC101060439 /// RAP1B / Fold change vs veh, LOC101060439 /// RAP1B / RFU, RFX7 / Fold change vs veh, RFX7 / RFU, GTPBP10 / Fold change vs veh, GTPBP10 / RFU, CNEP1R1 / Fold change vs veh, CNEP1R1 / RFU, BIVM-ERCC5 /// ERCC5 / Fold change vs veh, BIVM-ERCC5 /// ERCC5 / RFU, ILF3 / Fold change vs veh, ILF3 / RFU 11762660_at / Fold change /veh 11762660_at / RFU VCAN (11757783_s_at) / Fold change /veh VCAN (11757783_s_at) / RFU DDX43 (11728927_at) / Fold change /veh DDX43 (11728927_at) / RFU KRT8 (11758188_x_at) / Fold change /veh KRT8 (11758188_x_at) / RFU NKD1 (11759106_at) / Fold change /veh NKD1 (11759106_at) / RFU SRD5A1 (11742802_a_at) / Fold change /veh SRD5A1 (11742802_a_at) / RFU TPSAB1 /// TPSB2 (11721975_s_at) / Fold change /veh TPSAB1 /// TPSB2 (11721975_s_at) / RFU GSTM3 (11746129_a_at) / Fold change /veh GSTM3 (11746129_a_at) / RFU IL23R (11737362_x_at) / Fold change /veh IL23R (11737362_x_at) / RFU TMEM51 (11727254_a_at) / Fold change /veh TMEM51 (11727254_a_at) / RFU PIWIL2 (11732686_x_at) / Fold change /veh PIWIL2 (11732686_x_at) / RFU ORM1 (11744905_x_at) / Fold change /veh ORM1 (11744905_x_at) / RFU CCDC152 (11743942_at) / Fold change /veh CCDC152 (11743942_at) / RFU ECM1 (11717891_a_at) / Fold change /veh ECM1 (11717891_a_at) / RFU IL23R (11748794_a_at) / Fold change /veh IL23R (11748794_a_at) / RFU TNFAIP8L3 (11732012_x_at) / Fold change /veh TNFAIP8L3 (11732012_x_at) / RFU MBOAT4 (11741988_at) / Fold change /veh MBOAT4 (11741988_at) / RFU 11764193_at / Fold change /veh 11764193_at / RFU TMEM53 (11763286_at) / Fold change /veh TMEM53 (11763286_at) / RFU MAGEB2 (11727129_at) / Fold change /veh MAGEB2 (11727129_at) / RFU TMEM200A (11744735_a_at) / Fold change /veh TMEM200A (11744735_a_at) / RFU CCDC152 (11751479_a_at) / Fold change /veh CCDC152 (11751479_a_at) / RFU FAM211A (11726209_a_at) / Fold change /veh FAM211A (11726209_a_at) / RFU RGS16 (11746705_a_at) / Fold change /veh RGS16 (11746705_a_at) / RFU VCAN (11755009_s_at) / Fold change /veh VCAN (11755009_s_at) / RFU RHOB (11743442_s_at) / Fold change /veh RHOB (11743442_s_at) / RFU RGS16 (11720943_a_at) / Fold change /veh RGS16 (11720943_a_at) / RFU RGS16 (11720944_at) / Fold change /veh RGS16 (11720944_at) / RFU, VPS4B / Fold change vs veh, VPS4B / RFU, CREB1 / Fold change vs veh, CREB1 / RFU, DNAJC13 / Fold change vs veh, DNAJC13 / RFU, GNAQ / Fold change vs veh, GNAQ / RFU, CDK5R1 / Fold change vs veh, CDK5R1 / RFU, ZRANB3 / Fold change vs veh, ZRANB3 / RFU, CUL4A / Fold change vs veh, CUL4A / RFU, CCNY / Fold change vs veh, CCNY / RFU, UFL1 / Fold change vs veh, UFL1 / RFU, COG3 / Fold change vs veh, COG3 / RFU, DIAPH2 / Fold change vs veh, DIAPH2 / RFU, SKA2 / Fold change vs veh, SKA2 / RFU, AFF3 / Fold change vs veh, AFF3 / RFU, LMF1 / Fold change vs veh, LMF1 / RFU, IPO11 / Fold change vs veh, IPO11 / RFU, DFFB / Fold change vs veh, DFFB / RFU, FOXP1 / Fold change vs veh, FOXP1 / RFU, CARD8 / Fold change vs veh, CARD8 / RFU, STRN3 / Fold change vs veh, STRN3 / RFU, ADK / Fold change vs veh, ADK / RFU, RASSF2 / Fold change vs veh, RASSF2 / RFU, WIPF1 / Fold change vs veh, WIPF1 / RFU, LARP1B / Fold change vs veh, LARP1B / RFU, RASA1 / Fold change vs veh, RASA1 / RFU, RB1 / Fold change vs veh, RB1 / RFU, PPFIA1 / Fold change vs veh, PPFIA1 / RFU, MAT2A / Fold change vs veh, MAT2A / RFU, CCT5 / Fold change vs veh, CCT5 / RFU, WDR92 / Fold change vs veh, WDR92 / RFU, CUX1 / Fold change vs veh, CUX1 / RFU, TTC7A / Fold change vs veh, TTC7A / RFU, TMEM135 / Fold change vs veh, TMEM135 / RFU, DEPTOR / Fold change vs veh, DEPTOR / RFU, CPM / Fold change vs veh, CPM / RFU, DNAJB6 / Fold change vs veh, DNAJB6 / RFU, CACNA2D3 / Fold change vs veh, CACNA2D3 / RFU, DTX4 / Fold change vs veh, DTX4 / RFU, TFCP2 / Fold change vs veh, TFCP2 / RFU, GMCL1 /// GMCL1P1 / Fold change vs veh, GMCL1 /// GMCL1P1 / RFU, AEBP2 / Fold change vs veh, AEBP2 / RFU, SNHG1 /// SNORD22 /// SNORD25 /// SNORD26 /// SNORD27 /// SNORD28 /// SNORD29 /// SNORD31 / Fold change vs veh, SNHG1 /// SNORD22 /// SNORD25 /// SNORD26 /// SNORD27 /// SNORD28 /// SNORD29 /// SNORD31 / Fold change (Aza/veh), C12orf56 (ProbeSet 11735607_a_at) / Fold change (ACY-1035/veh), C12orf56 (ProbeSet 11735607_a_at) / Fold change (Aza/veh), FGFR1OP (ProbeSet 11751329_s_at) / Fold change (ACY-1035/veh), FGFR1OP (ProbeSet 11751329_s_at) / Fold change (Aza/veh), VPS36 (ProbeSet 11739960_a_at) / Fold change (ACY-1035/veh), VPS36 (ProbeSet 11739960_a_at) / RFU SYPL1 (11715823_x_at) / Fold change /veh SYPL1 (11715823_x_at) / RFU IGFBP7 (11715501_s_at) / Fold change /veh IGFBP7 (11715501_s_at) / RFU REEP3 (11722064_at) / Fold change /veh REEP3 (11722064_at) / RFU IGLL1 (11728026_x_at) / Fold change /veh IGLL1 (11728026_x_at): dose or concentration left out as unconfirmed. In kind it is cell-based, human. Particulars: ProbeSet 11732154_at; LIST B.

As to `Nc1ncn([C@@H]2O[C@H](CO)[C@@H](O)[C@H]2O)c(=O)n1` [azacitidine], the “Fold change vs veh, OGT” value stood at 0.90.
